Reference: article PMC8364686, “Safety, tolerability, pharmacokinetics and pharmacodynamics of single oral doses of BI 187004, an inhibitor of 11beta-hydroxysteroid dehydrogenase-1, in healthy male volunteers with overweight or obesity” (Clinical Diabetes and Endocrinology, 2021)
Where “and” joins values, the source holds several entries; their conditions need not be identical. Identical values can stand only once.

Test: Plasma pharmacokinetics of BI 187004 after single oral doses (LC–MS/MS)
Details: for BI 187004 plasma concentrations: individual subjects
[1] = male, human, plasma, po, 2.5 mg
[2] = male, human, plasma, po, 2.5 mg, Plasma concentration Mean, 2.5 mg single oral
[3] = male, human, plasma, po, 2.5 mg, Plasma concentration Median, 2.5 mg single oral
[4] = male, human, plasma, po, 2.5 mg, Plasma concentration gMean, 2.5 mg single oral

For `N#Cc1ccc2c(c1)[C@H]1CCCN(C(=O)c3ccc4[nH]cnc4c3)[C@H]1C2` [BI 187004], the “Plasma concentration, individual subjects” value (2.5 mg single oral, planned time 0.5 h) was “BLQ (Below Limit of Quantification (<3.00 nmol/L)) and 5.84 nmol/L and 15.8 nmol/L and 8.84 nmol/L”, the “Plasma concentration, individual subjects” value (2.5 mg single oral, planned time 1 h) was “BLQ (Below Limit of Quantification (<3.00 nmol/L)) and 6.77 nmol/L and 28.4 nmol/L and 17.6 nmol/L and 7.86 nmol/L and 5.64 nmol/L” and the “Plasma concentration, individual subjects” value (2.5 mg single oral, planned time 1.5 h) was “BLQ (Below Limit of Quantification (<3.00 nmol/L)) and 6.06 nmol/L and 17.2 nmol/L and 14.9 nmol/L and 12.1 nmol/L and 5.62 nmol/L”. For the same molecule, the “Plasma concentration, individual subjects” value (2.5 mg single oral, planned time 2 h) was “BLQ (Below Limit of Quantification (<3.00 nmol/L)) and 4.97 nmol/L and 13.8 nmol/L and 11.0 nmol/L and 9.41 nmol/L and 4.67 nmol/L”, the “Plasma concentration, individual subjects” value (2.5 mg single oral, planned time 2.5 h) was “BLQ (Below Limit of Quantification (<3.00 nmol/L)) and 4.45 nmol/L and 12.5 nmol/L and 10.1 nmol/L and 8.45 nmol/L” and the “Plasma concentration, individual subjects” value (2.5 mg single oral, planned time 3 h) was “BLQ (Below Limit of Quantification (<3.00 nmol/L)) and 3.48 nmol/L and 11.9 nmol/L and 8.37 nmol/L and 6.66 nmol/L and 3.95 nmol/L”. The “Plasma concentration, individual subjects” value (2.5 mg single oral, planned time 4 h) was “BLQ (Below Limit of Quantification (<3.00 nmol/L)) and 3.40 nmol/L and 10.7 nmol/L and 7.79 nmol/L and 6.03 nmol/L and 4.09 nmol/L”, the “Plasma concentration, individual subjects” value (2.5 mg single oral, planned time 5 h) was “BLQ (Below Limit of Quantification (<3.00 nmol/L)) and 9.77 nmol/L and 7.70 nmol/L and 6.49 nmol/L and 3.91 nmol/L” and the “Plasma concentration, individual subjects” value (2.5 mg single oral, planned time 6 h) was “BLQ (Below Limit of Quantification (<3.00 nmol/L)) and 7.52 nmol/L and 6.22 nmol/L and 5.34 nmol/L and 3.36 nmol/L”. For the same molecule, the “Plasma concentration, individual subjects” value (2.5 mg single oral, planned time 8 h) was “BLQ (Below Limit of Quantification (<3.00 nmol/L)) and 6.55 nmol/L and 5.06 nmol/L”, the “Plasma concentration, individual subjects” value (2.5 mg single oral, planned time 10 h) was “BLQ (Below Limit of Quantification (<3.00 nmol/L)) and 5.19 nmol/L and 3.85 nmol/L and 3.08 nmol/L” and the “Plasma concentration, individual subjects” value (2.5 mg single oral, planned time 12 h) was “BLQ (Below Limit of Quantification (<3.00 nmol/L)) and 4.76 nmol/L and 4.10 nmol/L and 3.34 nmol/L”. For the same molecule, the “Plasma concentration, individual subjects” value (2.5 mg single oral, planned time 24 h) was “BLQ (Below Limit of Quantification (<3.00 nmol/L)) and 6.66 nmol/L and 5.03 nmol/L and 3.69 nmol/L and 3.73 nmol/L”, the “Plasma concentration, individual subjects” value (2.5 mg single oral, planned time 36 h) was “BLQ (Below Limit of Quantification (<3.00 nmol/L)) and 3.88 nmol/L” and the “Plasma concentration, individual subjects” value (2.5 mg single oral, planned time 48 h) was “BLQ (Below Limit of Quantification (<3.00 nmol/L)) and 5.01 nmol/L and 4.22 nmol/L and 3.14 nmol/L”. For the same molecule, the “Plasma concentration, individual subjects” value (2.5 mg single oral, planned time 72 h) was “BLQ (Below Limit of Quantification (<3.00 nmol/L)) and 3.91 nmol/L”, the “Plasma concentration, individual subjects” value (2.5 mg single oral, planned time 96 h) was “BLQ (Below Limit of Quantification (<3.00 nmol/L))” and the “Plasma concentration, individual subjects” value (2.5 mg single oral, planned time –0.5 h) was “BLQ (Below Limit of Quantification (<3.00 nmol/L))”. For the same molecule, the “CL/F gMean (%gCV)” value (5 mg single oral dose) was 5.82 (23.0) L/h, the “Plasma concentration, individual subjects” value (5 mg single oral, planned time 0.5 h) was 17.6 nM and 16.1 nM and the “Plasma concentration, individual subjects” value (5 mg single oral, planned time 1 h) was 139 nM and 113 nM. For the same molecule, the “Plasma concentration, individual subjects” value (5 mg single oral, planned time 1.5 h) was 137 nM and 105 nM, the “Plasma concentration, individual subjects” value (5 mg single oral, planned time 2 h) was 125 nM and 89.1 nM and the “Plasma concentration, individual subjects” value (5 mg single oral, planned time 2.5 h) was 113 nM and 99.4 nM. For the same molecule, the “Plasma concentration, individual subjects” value (5 mg single oral, planned time 3 h) was 104 nM and 89.4 nM, the “Plasma concentration, individual subjects” value (5 mg single oral, planned time 4 h) was 97.2 nM and 80.1 nM and the “Plasma concentration, individual subjects” value (5 mg single oral, planned time 5 h) was 88.2 nM and 69.3 nM. The “Plasma concentration, individual subjects” value (5 mg single oral, planned time 6 h) was 74.1 nM and 59.0 nM and 90.2 nM, the “Plasma concentration, individual subjects” value (5 mg single oral, planned time 8 h) was 67.1 nM and 53.5 nM and 81.4 nM and the “Plasma concentration, individual subjects” value (5 mg single oral, planned time 10 h) was 63.2 nM and 54.2 nM and 38.5 nM and 58.5 nM. For the same molecule, the “Plasma concentration, individual subjects” value (5 mg single oral, planned time 12 h) was 54.1 nM and 51.5 nM and 32.5 nM, the “Plasma concentration, individual subjects” value (5 mg single oral, planned time 24 h) was 30.9 nM and 21.5 nM and the “Plasma concentration, individual subjects” value (5 mg single oral, planned time 36 h) was 19.4 nM and 14.0 nM and 9.68 nM. The “Plasma concentration, individual subjects” value (5 mg single oral, planned time 48 h) was 20.9 nM and 11.6 nM and 10.6 nM, the “Plasma concentration, individual subjects” value (5 mg single oral, planned time 72 h) was 12.4 nM and 5.72 nM and 5.44 nM and the “Plasma concentration, individual subjects” value (5 mg single oral, planned time 96 h) was 7.71 nM and 4.37 nM and 3.26 nM. For the same molecule, the “Plasma concentration, individual subjects” value (5 mg single oral, planned time –0.5 h) was “BLQ (Below Limit of Quantification (<3.00 nmol/L))”, the “CL/F gMean (%gCV)” value (10 mg single oral dose) was 4.93 (29.2) L/h and the “Plasma concentration, individual subjects” value (10 mg single oral, planned time –0.5 h) was “BLQ (Below Limit of Quantification (<3.00 nmol/L))”. For the same molecule, the “CL/F gMean (%gCV)” value (20 mg single oral dose) was 4.70 (41.2) L/h, the “BI 187004 plasma concentrations” value (20 mg single oral, planned time 72 h) was “BLQ (Below Limit of Quantification (<3.00 nmol/L))” and the “BI 187004 plasma concentrations” value (20 mg single oral, planned time 96 h) was “BLQ (Below Limit of Quantification (<3.00 nmol/L))”. The “BI 187004 plasma concentrations” value (20 mg single oral, planned time –0.5 h) was “BLQ (Below Limit of Quantification (<3.00 nmol/L))”, the “CL/F gMean (%gCV)” value (40 mg single oral dose) was 4.50 (36.1) L/h and the “BI 187004 plasma concentrations” value (40 mg single oral, planned time –0.5 h) was “BLQ (Below Limit of Quantification (<3.00 nmol/L))”. For the same molecule, the “CL/F gMean (%gCV)” value (80 mg single oral dose) was 4.56 (40.2) L/h, the “BI 187004 plasma concentrations” value (80 mg single oral, planned time –0.5 h) was “BLQ (Below Limit of Quantification (<3.00 nmol/L))” and the “CL/F gMean (%gCV)” value (160 mg single oral dose) was 4.21 (19.5) L/h. For the same molecule, the “BI 187004 plasma concentrations” value (160 mg single oral, planned time 96 h) was “BLQ (Below Limit of Quantification (<3.00 nmol/L))”, the “BI 187004 plasma concentrations” value (160 mg single oral, planned time –0.5 h) was “BLQ (Below Limit of Quantification (<3.00 nmol/L))” and the “Time to Cmax, single subject (subject 64)” value (240 mg) was 24 h. For the same molecule, the “CL/F gMean (%gCV)” value (240 mg single oral dose) was 6.44 (53.4) L/h, the “BI 187004 plasma concentrations” value (240 mg single oral, planned time -0.5 h) was “BLQ (Below Limit of Quantification (<3.00 nmol/L))” and the “CL/F gMean (%gCV)” value (360 mg single oral dose) was 5.48 (25.4) L/h. For the same molecule, the “BI 187004 plasma concentrations” value (360 mg single oral, planned time –0.5 h) was “BLQ (Below Limit of Quantification (<3.00 nmol/L))”, the “Apparent clearance (CL/F), range across dose groups” value (5–360 mg) was 4.21—6.44 L/h and the concentration at 96 h (male, human, in vivo, po, 240 mg) was 18.4 nM. The Vd/F (male, human, plasma, oral) was 87.9 to 281 L, the concentration at 10 h (male, human, plasma, oral, 10 mg, Plasma C10 gMean (range), 10 mg single dose) was 174 nM and the concentration at 24 h (male, human, plasma, oral, 10 mg, Plasma C24 gMean (range), 10 mg single dose, 24 h) was 71.3 nM. The concentration at 10 h (male, human, plasma, oral, 20 mg, Plasma C10 gMean (range), 20 mg single dose) was 382 nM, the concentration at 24 h (male, human, plasma, oral, 20 mg, Plasma C24 gMean (range), 20 mg single dose, 24 h) was 161 nM and the concentration at 10 h (male, human, plasma, oral, 40 mg, Plasma C10 gMean (range), 40 mg single dose) was 796 nM. For the same molecule, the concentration at 24 h (male, human, plasma, oral, 40 mg, Plasma C24 gMean (range), 40 mg single dose, 24 h) was 321 nM, the concentration at 10 h (male, human, plasma, oral, 80 mg, Plasma C10 gMean (range), 80 mg single dose) was 1530 nM and the concentration at 24 h (male, human, plasma, oral, 80 mg, Plasma C24 gMean (range), 80 mg single dose, 24 h) was 878 nM. The concentration at 10 h (male, human, plasma, oral, 160 mg, Plasma C10 gMean (range), 160 mg single dose) was 3000 nM, the concentration at 24 h (male, human, plasma, oral, 160 mg, Plasma C24 gMean (range), 160 mg single dose, 24 h) was 1630 nM and the concentration at 10 h (male, human, plasma, oral, 240 mg, Plasma C10 gMean (range), 240 mg single dose) was 2600 nM. The concentration at 24 h (male, human, plasma, oral, 240 mg, Plasma C24 gMean (range), 240 mg single dose, 24 h) was 2130 nM, the concentration at 10 h (male, human, plasma, oral, 360 mg, Plasma C10 gMean (range), 360 mg single dose) was 5300 nM and the concentration at 24 h (male, human, plasma, oral, 360 mg, Plasma C24 gMean (range), 360 mg single dose, 24 h) was 2690 nM. It also gave a Tmax (male, human, plasma, po) of 1 to 1.5 h, an AUC(0-t) [1] of 0.212 µM·h and a Cmax [1] of 11.8 nM. The Tmax [1] was 1 h, the concentration at 24 h (male, human, plasma, po, 2.5 mg, C24 gMean (%gCV), 2.5 mg single oral dose) was 4.54 nM and the concentration at 1 h [2] was 13.3 nM. It also gave a concentration at 1.5 h [2] of 11.2 nM, a concentration at 2 h [2] of 8.77 nM and a concentration at 2.5 h [2] of 7.99 nM. The concentration at 3 h [2] was 6.87 nM, the concentration at 4 h [2] was 6.4 nM and the concentration at 5 h [2] was 6.97 nM. The concentration at 6 h [2] was 5.61 nM, the concentration at 10 h [2] was 4.53 nM and the concentration at 12 h [2] was 4.66 nM. For the same molecule, the concentration at 24 h (male, human, plasma, po, 2.5 mg, Plasma concentration Mean, 2.5 mg single oral, 24 h) was 4.66 nM, the concentration at 48 h [2] was 3.99 nM and the concentration at 1 h [3] was 7.86 nM. The concentration at 1.5 h [3] was 12.1 nM, the concentration at 2 h [3] was 9.41 nM and the concentration at 2.5 h [3] was 8.45 nM. It also gave a concentration at 3 h [3] of 6.66 nM, a concentration at 4 h [3] of 6.03 nM and a concentration at 5 h [3] of 7.1 nM. It also gave a concentration at 6 h [3] of 5.78 nM, a concentration at 10 h [3] of 4.52 nM and a concentration at 12 h [3] of 4.43 nM. The concentration at 24 h (male, human, plasma, po, 2.5 mg, Plasma concentration Median, 2.5 mg single oral, 24 h) was 4.19 nM, the concentration at 48 h [3] was 3.9 nM and the concentration at 1 h [4] was 10.8 nM. For the same molecule, the concentration at 1.5 h [4] was 10.1 nM and the concentration at 2 h [4] was 8.02 nM.
